“And” between values parts separate entries of the source, which are not always exact repeats. Equal values may be shown once. “Also recorded” adds a separate entry of the source. Read-outs that look alike come from different tables or passages of the source.
Assays:
[1] = target: T1, E. coli dihydrofolate reductase (ecDHFR) (Escherichia coli, UniProt P0ABQ4); assay: Steady state kinetics of ecDHFR inhibition; format: biochemical; conditions: for α value (cooperative inhibition by MFM and pABG): Dixon plots, DHF 7.5 μM, α > 1 = negative cooperativity; for Ki: 30 °C, pH 7.0; for mode of inhibition: versus DHF, Lineweaver-Burk plot
T1 sequence (P0ABQ4 1-159): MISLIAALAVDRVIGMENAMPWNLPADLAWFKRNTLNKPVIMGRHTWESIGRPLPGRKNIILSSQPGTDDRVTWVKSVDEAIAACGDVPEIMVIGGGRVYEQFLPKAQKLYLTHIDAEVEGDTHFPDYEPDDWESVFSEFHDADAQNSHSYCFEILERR

[2] = target: T1, E. coli dihydrofolate reductase (ecDHFR)
L. casei DHFR = conditions: cited from earlier work
[3] = target: T1, E. coli dihydrofolate reductase (ecDHFR); format: binding; conditions: 0.1 mM ecDHFR; for ILOE signals with metformin (co-binding): 5 mM of each ligand (Fenbufen 2 mM), pH 6.8, 25 °C
[4] = target: T1, E. coli dihydrofolate reductase (ecDHFR); assay: biochemical; conditions: NMR
[5] = target: T1, E. coli dihydrofolate reductase (ecDHFR); assay: Isothermal titration calorimetry; format: binding
[6] = Ki, Lineweaver-Burk slope vs inhibitor concentration, NADPH 70 μM

In the case of `Nc1ccc(C(=O)N[C@@H](CCC(=O)O)C(=O)O)cc1` [pABG, p-aminobenzoyl-L-glutamate], the “α value (cooperative inhibition by MFM and pABG)” value ([1]; NADPH 70 μM) is reported as 3.3 ± 1.3, the Kd/Ki ratio ([1]; Kd (NMR, no cofactor) over Ki (NADPH present)) is reported as 4.4 and the Ki ([1]; Lineweaver-Burk slope vs inhibitor concentration, NADPH 70 μM) is reported as 1.8 ± 0.3 mM. The Ki ([1]; non-linear global fit of all the data (SAS), NADPH) was 1.3 ± 0.2 mM, the Kd ([2]; NMR, Ile50 resonance, no other ligand, pH 7.2 in D2O) was 7.64 ± 0.53 mM and the Kd ([2]; NMR, Ile61 resonance, no other ligand, pH 7.2 in D2O) was 8.09 ± 0.52 mM. For the same molecule, the Kd ([2]; NMR, Ile94 resonance, no other ligand, pH 7.2 in D2O) was 8 ± 0.37 mM, the Kd ([2]; read-out: Kd (mean), mean of NMR values from Ile50, Ile61, Ile94) was 7.9 mM and 7.91 mM and the “Kd ratio in the absence and presence of NADPH” value (L. casei DHFR) was 4.5. For the same molecule, the “ILOE signals with metformin (co-binding)” value [3] was “ILOE signals connecting the MFM methyl resonances with the pABG aromatic resonances were present”.

For `Cc1ccc(C(=O)NCC(=O)O)cc1` [4-methylhippurate], the “ILOE signals with metformin (co-binding)” value [3] was “ILOE signals were obtained”.

With `CN(C)C(=N)N=C(N)N` [Metformin] the “α value (cooperative inhibition by MFM and pABG)” value ([1]; NADPH 70 μM) was 3.3 ± 1.3, the Ki [1, 6] was 24 ± 7 mM and the Ki ([1]; Ki, non-linear global fit of all the data (SAS), NADPH) was 17.9 mM. For the same molecule, the mode of inhibition ([1]; listed as MFM) was “competitive binding; also recorded: competitive inhibition”, the “affinity relative to DAP (fold weaker)” value ([2]; ecDHFR affinity for MFM versus DAP) was ~ 20 fold and the Kd ([4]; Ile5 resonance, no other ligand, pH 7.2 in D2O) was 14.8 mM and 15.9 mM. The Kd ([4]; Ile50, 75 mM DMBP present) was 7 ± 0.16 mM, the Kd ([4]; Ile50′ (MFM-sensitive resonance), 50 mM pABG present) was 6.89 ± 0.56 mM and the Kd ([4]; Ile50′, 50 mM pABG and 2 mM NADP+ present) was 5.27 ± 0.71 mM. It also gave a Kd ([4]; Ile61′ (MFM-sensitive resonance), 50 mM pABG present) of 5.36 ± 1.15 mM, a ΔH ([5]; ITC competitive displacement by DHF, NADP+ present, initial fit with variable ΔH) of -4.6 ± 13.4 kJ/mol and a Kd ([5]; mean Kd, stated as mean of NMR and ITC displacement studies) of 17.9 mM.

In the case of `Cc1ccc(C(=O)CCC(=O)O)c(C)c1` [DMBP, 3-(2,4-dimethylbenzoyl)propionate], the Kd ([2]; NMR serial titration, no other ligand) is reported as 5.4 mM.

For `COc1ccc(C(=O)NCC(=O)O)cc1OC` [3,4-Dimethoxyhippurate, 3,4-dimethoxyhippurate], the “ILOE signals with metformin (co-binding)” value [3] was “weak ILOE cross peaks”.

With `O=C(O)c1cc(-c2ccc(F)cc2F)ccc1O` [Diflunisal] the “transferred NOE signals” value ([3]; screening buffer, 25 °C) was “transferred NOE signals consistent with binding”.

In the case of `O=C(O)CNC(=O)c1ccccc1` [hippurate, N-benzoylglycine], the “ILOE signals with metformin (co-binding)” value [3] is reported as “neither transferred NOE nor ILOE MFM-hippurate cross peaks were observed”.

For `CC(C)c1ccc(C(=O)CCC(=O)O)cc1` [4-isopropyl, 3-(4-isopropylbenozyl)propionate], the “ILOE signals with metformin (co-binding)” value [3] was “stronger ILOE signals”.

For `Cc1cc(C(=O)CCC(=O)O)c(C)c(C)c1C` [2,3,4,5-tetramethyl, 3-(2,3,4,5-tetramethylbenozyl)propionate], the “ILOE signals with metformin (co-binding)” value [3] was “stronger ILOE signals”.

With `[H]/N=C(/N)N/C(=N/[H])NCCc1ccccc1` [Phenformin, phenformin] the Ki [1, 6] was 0.17 ± 0.02 mM, the “inhibition constant relative to metformin (fold lower)” value ([1]; phenformin Ki versus metformin Ki) was 100 fold and the mode of inhibition [1] was “competitive inhibition”. It also gave a Kd ([5]; Kd, ITC direct titration, cofactor NADP+, pH 7.0, 25° C) of 0.188 ± 0.018 mM, a Kd ([5]; Kd, ITC direct titration, cofactor NADPH, pH 7.0, 25° C) of 0.098 ± 0.007 mM and a Kd ([5]; Kd, ITC direct titration, no cofactor, pH 7.0, 25° C) of 0.716 ± 0.045 mM.
